≈ marks a conversion by molar mass, not a printed value.
What was measured:
[1] = Thermodynamic functions of transfer 1-octanol/buffer pH 7.4; assay type: physicochemical; settings: 298.15 K
Method: The temperature variation of the partition coefficient provides enthalpic and entropic contributions to the free energy of transfer. The thermodynamic transfer functions for hybrids I–III in the 1-octanol/buffer pH 7.4 system were calculated by Equations (12)–(16) and are summarized in Table 6. The standard Gibbs energy values for all the compounds are negative. Therefore, the transfer from the aqueous medium to the organic phase within the studied temperature range is thermodynamically favourable and spontaneous. The standard transfer enthalpies of all the studied compounds are positive, which means the process is endothermic. Energy is consumed during the transfer to overcome the hydrophobic effects in water (destruction of the molecule solvate shell structure), destruction of the solvent–solute interactions in the aqueous medium and creation of a cavity in the organic phase where the solute molecules can enter.
The standard change in Gibbs free energy of transfer (∆trG^o) from the buffer to the organic phase was calculated by Equation (14):∆trG^o = −RTlnP*o/b(14)
The standard change entropy of transfer (∆trS^o) is determined as follows:∆trS^o = (∆trH^o − ∆trG^o)/T(15)

[2] = system: C. parapsilosis ATCC 22019; experiment: In vitro antifungal activity, microbroth dilution (MIC); assay type: cell-based
Method: (§1) The in vitro antifungal screening results of synthesized compounds was evaluated against three fungal strains: C. parapsilosis ATCC 22019, C. utilis 84, and C. glabrata 61L are summarized in Table 1.
(§2) The in vitro antifungal activity of the target compounds was measured by means of the minimal inhibitory concentrations (MIC) with fluconazole as the control drug. Procedure was carried out by the microbroth dilution method in 96-well plates according to the recommendations of the Clinical and Laboratory Standards Institute. The detailed information was reported previously. The investigated pathogenic species included C. parapsilosis ATCC 22019, C. utilis 84 and C. glabrata 61. The sensitivity was evaluated visually, after the incubation at 35 °C for 24 h and the value was compared with the growth density in the reference culture without the sample. Each test was conducted in triplicate.

C. utilis 84 = experiment: as above; assay type: cell-based; settings: Williopsis jadinii, 84, 24 h
Method: as §1, §2

C. glabrata 61L = experiment: as above; assay type: cell-based
Method: as §1, §2

[3] = Apparent thermodynamic functions of dissolution (van't Hoff); assay type: physicochemical; settings: Thm = 302.98 K
Source text: The dissolution of the new hybrids was characterized based on apparent thermodynamic parameters obtained from temperature dependences of solubility of the studied compounds in the selected solvents (Figure 6). […] The van’t Hoff enthalpy of dissolution can be expressed as the inclination of a tangent to a solubility curve plotted as lnx vs. (1/T − 1/Thm) by Equation (6): (6) ΔHsolo=−R(∂lnx/∂(1/T−1/Thm))=−R⋅slope where R = 8.314 J⋅K^−1·mol^−1 is the universal gas constant. Thm = 302.98 K denotes the mean harmonic temperature, which was calculated by Equation (7):(7) Thm=n/∑i=1n1/Ti where n represented the number of experimental temperatures. The apparent standard Gibbs energy was evaluated by Equation (8):(8) ΔGsolo=−RThm×intersept
The apparent standard solution entropies were obtained from the well-known relationship:(9) ΔSsolo=ΔHsolo−ΔGsolo/Thm
The calculated apparent thermodynamic solubility functions of dissolution (Gibbs energy, enthalpy, and entropy) at standard temperature 298.15 K for hybrid compounds were collected in Table 4.

[4] = Equilibrium (thermodynamic) solubility, shake-flask method; assay type: physicochemical; settings: for Solubility S × 10^3 / Solubility x × 10^3 / Solubility x × 10^5 / Solubility S × 10^4 / Solubility x × 10^6: amorphous state; for Solubility S × 10^4 / Solubility x × 10^6: Buffer pH 7.4
Source text: The experimental solubility values of hybrids in the selected solvents within the temperature range of 293.15–313.15 K expressed in molarity are summarized in Table 2. The comparative analysis of the reference values of the solubility of compounds I–III at the standard temperature of 298.15 K is given as a histogram in Figure 3.
Shake-flask method as “gold standard” was used for determination thermodynamic solubility synthesized compounds in buffer solutions (pH 2.0 and 7.4) and 1-octanol in the temperature range of 293.15–313.15 K with a step of 5 degrees at atmospheric pressure. Excessive amounts of compound were added to glass vials c 12 mL of selected solvent. The heterogeneous system is closed with a lid and vigorously stirred at the selected temperature in an air thermostat with a stirring device until the solubility equilibrium has been reached. The time required for establishing a constant value of the solution concentration was determined from the solubility kinetic dependences and averaged 2 days. The equilibrated solutions were first survived to aim sedimentation of solid phase during 10 h, then centrifuged at 20,000 rpm for 30 min at specific temperatures, and then quickly filtered using a syringe equipped with a hydrophilic filter Millex-GV 0.22 µm (Ireland). Concentration of saturated solution was measured using spectrophotometer Cary-50 (Varian, USA) with an accuracy of 2–4%. The absorbances of compounds studied were measured at wavelengths 332 and 334 nm in buffer solutions and 1-octanol, respectively. If necessary, an aliquot was diluted with an appropriate solvent. The final pH of the saturated buffers was monitored. The solubility of compounds in each solvent was determined by repeating the procedure three times.
Mole fraction concentration was calculated from solubility value S expressed in mol∙L^−1 using Equation (10):(10) x=M2S/S(M2−M1)+1000ρ, where M1 and M2 are the molar masses of solute and solvent, respectively, and ρ (g∙cm^−3) is the density of the pure solvents. The mole fraction solubilities for buffer solutions were calculated taking into account the buffer compositions. The used values of densities are given in Table S6 in Supplementary Material.

Cc1ccc(-n2c(=S)sc3c(=O)n(CCCN4CCN(CC(O)(Cn5cncn5)c5ccc(F)cc5F)CC4)cnc32)cc1 (stereo not shown) [I, 6-[3-[4-[2-(2,4-difluorophenyl)-2-hydroxy-3-(1H-1,2,4-triazol-1-yl)propyl]-1-piperazinyl]propyl]-2,3-dihydro-3-(4-methylphenyl)-2-thioxo-thiazolo[4,5-d]pyrimidin-7(6H)-one]
T∆trS^o [1]: 9.08 ± 0.22 kcal/mol
∆trG^o [1]: -4.68 ± 0.12 kcal/mol
∆trH^o [1]: 4.37 ± 0.072 kcal/mol
∆trS^o [1]: 127.4 ± 4.7 J·mol^−1·K^−1
advantage over fluconazole ([2]; C. parapsilosis ATCC 22019, MIC ratio): 4 fold
MIC ([2]; Lodderomyces parapsilosis, ATCC22019, 24 h): 0.5 µg/mL (≈ 0.783 µM)
MIC (C. utilis 84): 4 µg/mL (≈ 6.26 µM)
MIC relative to the reference value (fluconazole) (C. glabrata 61L; C. glabrata 61L): four times less
MIC (C. glabrata 61L; Nakaseomyces glabratus, 61L, 24 h): 2 µg/mL (≈ 3.13 µM)
TΔSsolo ([3]; 1-Octanol): -1.48 kcal/mol
ΔGsolo ([3]; 1-Octanol): 4.02 ± 0.048 kcal/mol
ΔHsolo ([3]; 1-Octanol): 2.53 ± 0.048 kcal/mol
ΔSsolo ([3]; 1-Octanol): −20.8 ± 1.1 J·mol^−1·K^−1
TΔSsolo ([3]; Buffer pH 2.0): -3.23 kcal/mol
ΔGsolo ([3]; Buffer pH 2.0): 6.07 ± 0.12 kcal/mol
ΔHsolo ([3]; Buffer pH 2.0): 2.84 ± 0.024 kcal/mol
ΔSsolo ([3]; Buffer pH 2.0): −45.2 ± 2.4 J·mol^−1·K^−1
TΔSsolo ([3]; Buffer pH 7.4): -4.54 kcal/mol
ΔGsolo ([3]; Buffer pH 7.4): 7.7 ± 0.14 kcal/mol
ΔHsolo ([3]; Buffer pH 7.4): 3.15 ± 0.024 kcal/mol
ΔSsolo ([3]; Buffer pH 7.4): −63.6 ± 4.1 J·mol^−1·K^−1
Solubility S × 10^3 ([4]; 1-Octanol, 293.15 K): 7.0781 mol∙L^−1 (printed as S × 10^3)
Solubility x × 10^3 ([4]; 1-Octanol, 293.15 K): 1.1199 mol. frac. (printed as x × 10^
Solubility S × 10^3 ([4]; 1-Octanol, 298.15 K): 7.5389 mol∙L^−1 (printed as S × 10^3)
Solubility x × 10^3 ([4]; 1-Octanol, 298.15 K): 1.1981 mol. frac. (printed as x × 10^
Solubility S × 10^3 ([4]; 1-Octanol, 303.15 K): 8.0826 mol∙L^−1 (printed as S × 10^3)
Solubility x × 10^3 ([4]; 1-Octanol, 303.15 K): 1.2903 mol. frac. (printed as x × 10^
Solubility S × 10^3 ([4]; 1-Octanol, 308.15 K): 8.6264 mol∙L^−1 (printed as S × 10^3)
Solubility x × 10^3 ([4]; 1-Octanol, 308.15 K): 1.3835 mol. frac. (printed as x × 10^
Solubility S × 10^3 ([4]; 1-Octanol, 313.15 K): 9.2070 mol∙L^−1 (printed as S × 10^3)
Solubility x × 10^3 ([4]; 1-Octanol, 313.15 K): 1.4834 mol. frac. (printed as x × 10^
solubility at 2 days ([4]; 25 °C, organic solvent or mixture, thermodynamic from solid, 1-octanol, text values match 298.15 K, read-out: Solubility S in the alcohol (1-octanol)): 7.54 mM (≈ 4820 µg/mL)
Solubility S × 10^3 ([4]; Buffer pH 2.0, 293.15 K): 1.8307 mol∙L^−1 (printed as S × 10^3)
Solubility x × 10^5 ([4]; Buffer pH 2.0, 293.15 K): 3.3040 mol. frac. (printed as x × 10^
Solubility S × 10^3 ([4]; Buffer pH 2.0, 298.15 K): 1.9773 mol∙L^−1 (printed as S × 10^3)
Solubility x × 10^5 ([4]; Buffer pH 2.0, 298.15 K): 3.5732 mol. frac. (printed as x × 10^
Solubility S × 10^3 ([4]; Buffer pH 2.0, 303.15 K): 2.1311 mol∙L^−1 (printed as S × 10^3)
Solubility x × 10^5 ([4]; Buffer pH 2.0, 303.15 K): 3.8570 mol. frac. (printed as x × 10^
Solubility S × 10^3 ([4]; Buffer pH 2.0, 308.15 K): 2.3027 mol∙L^−1 (printed as S × 10^3)
Solubility x × 10^5 ([4]; Buffer pH 2.0, 308.15 K): 4.1749 mol. frac. (printed as x × 10^
Solubility S × 10^3 ([4]; Buffer pH 2.0, 313.15 K): 2.4851 mol∙L^−1 (printed as S × 10^3)
Solubility x × 10^5 ([4]; Buffer pH 2.0, 313.15 K): 4.5144 mol. frac. (printed as x × 10^
Solubility S × 10^4 ([4]; 293.15 K): 1.1295 mol∙L^−1 (printed as S × 10^4)
Solubility x × 10^6 ([4]; 293.15 K): 2.0541 mol. frac. (printed as x × 10^
Solubility S × 10^4 ([4]; 298.15 K): 1.2441 mol∙L^−1 (printed as S × 10^4)
Solubility x × 10^6 ([4]; 298.15 K): 2.2653 mol. frac. (printed as x × 10^
Solubility S × 10^4 ([4]; 303.15 K): 1.3510 mol∙L^−1 (printed as S × 10^4)
Solubility x × 10^6 ([4]; 303.15 K): 2.4636 mol. frac. (printed as x × 10^
Solubility S × 10^4 ([4]; 308.15 K): 1.4682 mol∙L^−1 (printed as S × 10^4)
Solubility x × 10^6 ([4]; 308.15 K): 2.6820 mol. frac. (printed as x × 10^
Solubility S × 10^4 ([4]; 313.15 K): 1.5920 mol∙L^−1 (printed as S × 10^4)
Solubility x × 10^6 ([4]; 313.15 K): 2.9135 mol. frac. (printed as x × 10^
